Experimental data published in article PMC10143968, “Chamigrane-Type Sesquiterpenes from Laurencia dendroidea as Lead Compounds against Naegleria fowleri” (Marine Drugs, 2023).
Like-named read-outs stand apart in the source and are kept apart here.

Assays:
[1] = tested on: N. fowleri ATCC 30808™; test: In vitro activity against Naegleria fowleri trophozoites (alamarBlue), ATCC 30808 strain; format: cell-based; details: for IC50: trophozoites, alamarBlue, 48 h, 37 °C, read-out: 50% inhibitory concentration (IC50) against N. fowleri ATCC 30808™
Description: (§1) The in vitro experiments were carried out using two different Naegleria fowleri type strains, ATCC 30808™ and ATCC 30215™. The cells were grown in axenic conditions as previously described in other works of our group. The strains were cultured in a level 3 biological security facility at the Instituto Universitario de Enfermedades Tropicales y Salud Pública de Canarias, Universidad de La Laguna, Spain.
(§2) An alamarBlue™-based colorimetric assay was used to determine the in vitro activity of the chamigrane-type sesquiterpenes. Briefly, a known concentration of the trophozoites (2 × 10^5 cells/mL) was incubated with serial dilutions of the compounds. After, the alamarBlue™ reagent was added and the plate was placed at 37 °C for 48 h. Finally, the fluorescence was read and a non-linear regression analysis with a 95% confidence limit, in order to reckon the 50% and 90% inhibitory concentration (IC50 and IC90), was performed.
(§3) The in vitro IC50, IC90 and CC50 were determined by a non-linear regression analysis with a 95% of confidence limit using the Graphpad Prism version 9.0 (GraphPad Software; CA; USA). Three independent experiments were performed to obtain each data, which is expressed as mean ± standard deviation (SD).

[2] = tested on: N. fowleri ATCC 30215™; test: In vitro activity against Naegleria fowleri trophozoites (alamarBlue), ATCC 30215 strain; format: cell-based; details: 37 °C, read-out: 50% inhibitory concentration (IC50) against N. fowleri ATCC 30215™
Description: as §1, §2, §3

[3] = tested on: Murine Macrophages J774.A1; test: In vitro cytotoxicity (alamarBlue); format: cell-based; details: mouse, 24 h
Description: (§4) The cytotoxicity assays were carried out in a murine macrophages cell line (ATCC TIB-67). The cells were incubated in Dulbecco’s Modified Eagle’s medium (GIBCO, Thermo Fisher Scientific, Madrid, Spain) (DMEM, w/v) supplemented with 10% (v/v) fetal bovine serum (FBS) and 10 µg/mL of gentamicin (Sigma-Aldrich, Madrid, Spain) at 37 °C in a 5% of CO2 atmosphere. The in vitro cytotoxicity of the compounds was determined following the alamarBlue ™ protocol mentioned in the previous section. Murine macrophages were incubated with serial dilutions of the evaluated molecules for 24 h at 37 °C and in presence of 5% of CO2. Finally, the 50% cytotoxic concentration (CC50) was determined after reading the fluorescence. The in vitro IC50, IC90 and CC50 were determined by a non-linear regression analysis with a 95% of confidence limit using the Graphpad Prism version 9.0 (GraphPad Software; CA; USA). Three independent experiments were performed to obtain each data, which is expressed as mean ± standard deviation (SD).

[4] = tested on: Naegleria fowleri cysts (ATCC 30808™); test: In vitro cysticidal activity (alamarBlue fluorometric assay); format: cell-based; details: ATCC30808, ATCC 30808™ cysts, 24 h incubation then 72 h with alamarBlue, read-out: IC50 against N. fowleri cysts (cysticidal activity)
Description: For the in vitro cysticidal activity assays, the Naegleria fowleri ATCC 30808™ strain was used. Cysts were obtained transferring the bactocasitone grown trophozoites to the MYAS medium and keeping them for ten days in slight agitation. The in vitro activity of the compounds against the Naegleria fowleri cyst was determined using an alamarBlue™-based fluorometric assay as previously described. Mature cysts were incubated with serial dilutions of the evaluated compound for 24 h at 37 °C. After that, the medium was removed and fresh bactocasitone was added. Later, the alamarBlue® reagent was placed and the plates were incubated for 72 additional hours at 37 °C. Finally, the EnSpire Multimode Plate Reader (PerkinElmer, Madrid, Spain) was used to read the fluorescence and calculate the IC50 as described in Section 4.3. The in vitro IC50, IC90 and CC50 were determined by a non-linear regression analysis with a 95% of confidence limit using the Graphpad Prism version 9.0 (GraphPad Software; CA; USA). Three independent experiments were performed to obtain each data, which is expressed as mean ± standard deviation (SD).

[5] = tested on: Naegleria fowleri ATCC 30808™ trophozoites; test: Chromatin condensation (Hoechst 33342/PI double stain); format: cell-based; details: IC90 (2.45 µM), 24 h
Description: (§5) For the determination of the type of cell death that induces (+)-elatol (1), different commercial kits were used. […] Next, the reagents corresponding to each kit were added, allowing the appearance of programmed cell death (PCD) processes in the cells to be observed. Moreover, the percentage of stained cells was determined using the EVOS™ M5000 Software (Invitrogen by Thermo Fisher Scientific). All experiments were performed in triplicate and five different images (×40) were processed each time.
The condensed chromatin was detected with the double-stain apoptosis detection kit (Hoechst 33342/PI) (Life Technologies, Madrid, Spain). The Hoechst 33342 stain emits blue fluorescence in the presence of condensed chromatin while the Propidium iodide (PI) is able to travel through the membrane of dead cells and emit a red fluorescence.
(§6) The percentage of stained cells determination in the PCD assays was calculated using the EVOS™ M5000 Software (Invitrogen by Thermo Fisher Scientific). […] The bar graph of the mitochondrial membrane potential evaluation illustrates the mean fluorescence and SD emitted by the aggregate and monomer forms of the JC-1 stain. […] Moreover, in all the PCD assays, a one-way analysis of variance (ANOVA) was assessed to study the differences between the treated and negative control trophozoites. ** p < 0.01; *** p < 0.001; **** p < 0.0001 significant differences.

[6] = tested on: Naegleria fowleri (ATCC 30808™) trophozoites; format: cell-based; details: not told
Description: as §5
The permeability of the plasma membrane was assessed with the SYTOX Green® stain. The plasma membrane is impermeable to the dye in healthy conditions. However, when the permeability of the plasma membrane is compromised, the SYTOX Green® enters the cells, binds the DNA and emits an intense green fluorescence at 523 nm wavelength.
as §6

[7] = tested on: Naegleria fowleri ATCC 30808™ trophozoites; test: Reactive oxygen species production (CellROX Deep Red); format: cell-based; details: IC90 (2.45 µM), 24 h
Description: as §5
To determine the oxidative damage, the CellROX Deep Red fluorescent assay (Thermo Fisher Scientific) was used. […] These reagents produce red fluorescence with maximum absorption/emission peaks of ~644/665 nm when facing the reactive oxygen species (ROS) in the cytoplasm.
as §6

[8] = tested on: Naegleria fowleri ATCC 30808™ trophozoites; test: Mitochondrial membrane potential (JC-1); format: cell-based; details: IC90 (2.45 µM), 24 h
Description: as §5
For determining mitochondrial damage in treated amoebae, two different assays were performed. Firstly, to measure the collapse of the transmembrane electrochemical gradient, a lipophilic cationic dye called JC-1 (Cayman Chemicals Vitro SA, Madrid, Spain) was used. […] When the membrane potential is high, the fluorophore will be found in the mitochondria in the j-aggregates form emitting red fluorescence at 595 nm. On the other hand, when membrane depolarization occurs, the reagent disperses and remains in its monomeric form showing green fluorescence at 535 nm.
The percentage of stained cells determination in the PCD assays was calculated using the EVOS™ M5000 Software (Invitrogen by Thermo Fisher Scientific). […] The bar graph of the mitochondrial membrane potential evaluation illustrates the mean fluorescence and SD emitted by the aggregate and monomer forms of the JC-1 stain. […]

[9] = tested on: Naegleria fowleri ATCC 30808™ trophozoites; test: ATP production (CellTiter-Glo); format: cell-based; details: IC90 (2.45 µM), 24 h
Description: as §5
Afterwards, to validate the mitochondrial damage, the levels of ATP produced in the amoebae treated with the IC90 of the compound were analyzed using the CellTiter-Glo® Luminescent Cell Viability Assay reagent (Promega Biotech Ibérica S.L, Madrid, Spain) following manufacturer’s instructions.

[10] = In vitro cytotoxicity (alamarBlue); format: cell-based, murine; details: mouse
Description: as §4

[11] = Naegleria fowleri, ATCC30808, 48 h
[12] = Naegleria fowleri, ATCC30215, 48 h
[13] = J774.A1 murine macrophage cell line (ATCC TIB-67), alamarBlue, 24 h, 37 °C, read-out: 50% cytotoxic concentration (CC50) against murine macrophages J774.A1

`C=C1CC(O)C(Br)C(C)(C)C12CCC(C)=C(Cl)C2` (single isomer, unassigned; (+)) [(+)-Elatol (1), (+)-elatol] showed an IC90 ([1]; Naegleria fowleri, ATCC30808, ATCC 30808™ strain) of 2.45 µM, an IC50 [1] of 1.08 ± 0.09 µM and an IC50 ([2]; 48 h) of 1.14 ± 0.09 µM. The CC50 [3] was 61.5 ± 13 µM, the IC50 [4] was 1.14 µM and the “chromatin condensation (Hoechst 33342 fluorescence)” value [5] was “intense blue fluorescence”. The “propidium iodide staining (red fluorescence)” value [5] was “absence of the red fluorescence”, the “plasma membrane permeability (SYTOX Green fluorescence)” value [6] was “plasma membrane is damaged in treated cells” and the “ROS generation (CellROX Deep Red)” value [7] was “induces the over-generation of ROS”. The “mitochondrial membrane potential (JC-1)” value [8] was “depolymerization of the mitochondrial membrane potential” and the “reduction of ATP production compared to untreated cells” value [9] was 82.11%.
With `C=C1CC(O)C(Br)C(C)(C)C12CCC(C)=C(Cl)C2` (single isomer, unassigned; (-)) [(−)-Elatol (2), (−)-elatol] the “fold less potent than (+)-elatol (1)” value ([1]; IC50 ratio against N. fowleri trophozoites) was 34 fold, the IC50 [1] was 36.8 ± 8.03 µM and the IC50 ([2]; 48 h) was 38 ± 7.61 µM. For the same compound, the CC50 [3] was over 150 µM.
`C=C1CC(O)C(Br)C(C)(C)C12CCC(C)(Cl)C(Br)C2` (single isomer, unassigned; (-)) [(−)-Rogiolol (5), (−)-rogiolol] gave an IC50 [1, 11] of 22.5 ± 5.81 µM, an IC50 [2, 12] of 9.71 ± 0.82 µM and a CC50 at 24 h ([10]; 50% cytotoxic concentration (CC50) against murine macrophages J774.A1) of 142 ± 17.2 µM.
For `C=C1C[C@H](O)CC(C)(C)[C@@]12CCC(C)=C(Cl)C2` [(+)-Debromoelatol (3), (+)-debromoelatol], the IC50 [1, 11] was over 98.1 µM.
For `C=C1C[C@H](O)[C@H](Br)C(C)(C)[C@]12CC=C(C)CC2` [(+)-Dechloroelatol (4), (+)-dechloroelatol], the IC50 [1, 11] was over 83.5 µM.
In the case of `C=C1C[C@@H](O)[C@@H](Br)C(C)(C)[C@]12CC[C@@](C)(O)[C@@H](Cl)C2` [(+)-Dendroidiol (7), (−)-dendroidiol], the IC50 [1, 11] is reported as over 71.1 µM.
Compound `C=C1CC[C@@H](Br)C(C)(C)[C@@]12CC[C@@](C)(Br)[C@H](Cl)C2` [(+)-Obtusane (10), (+)-obtusane] has an IC50 [1, 11] of over 62.7 µM.
Compound `C=C1C[C@@H](O)[C@@H](Br)C(C)(C)[C@]12CC[C@](C)(Br)[C@@H](Cl)C2` [(+)-Obtusol (9), (+)-obtusol] has an IC50 [1, 11] of over 60.3 µM.
Work on `CC1=CC[C@@H](Br)C(C)(C)[C@]12CC[C@](C)(Br)[C@@H](Cl)C2` [(−)-3,10-dibromo-4-chloro-alpha-chamigrane] yielded an IC50 [1, 11] of over 62.7 µM.
For `C=C1C[C@@H](O)[C@@H](Br)C(C)(C)[C@]12CC[C@@](C)(Cl)[C@H](Br)C2` [(−)-Cartilagineol (8), (−)-cartilagenol], the IC50 [1, 11] was over 60.3 µM.
In the case of `C[C@@H]1[C@H](O)[C@@H](C)/C=C/C=C/C=C/C=C/C=C/C=C/C=C/[C@H](O[C@@H]2O[C@H](C)[C@@H](O)[C@H](N)[C@@H]2O)C[C@@H]2O[C@](O)(C[C@@H](O)C[C@@H](O)[C@H](O)CC[C@@H](O)C[C@@H](O)CC(=O)O[C@H]1C)C[C@H](O)[C@H]2C(=O)O` [Amphotericin B, reference compound], the IC50 [1, 11] is reported as 0.12 ± 0.03 µM and the CC50 at 24 h [10, 13] is reported as over 200 µM.
`CCCCCCCCCCCCCCCCOP(=O)([O-])OCC[N+](C)(C)C` [Miltefosine, reference compound] gave an IC50 [1, 11] of 38.7 ± 4.23 µM, an IC50 [2, 12] of 81.6 ± 7.23 µM and a CC50 at 24 h [10, 13] of 128 ± 8.85 µM.
